Assay [1] relates to MOLM-14 D835Y (endogenous FLT3 ITD and transfected FLT3 D835Y). Put plainly: MOLM-14 D835Y cell proliferation assay (CellTiter-Glo). The class given is cell-based. The following applies: Homo sapiens, MOLM-14, 72 h; 3 d growth, GMean. In a few lines:
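MOLM-14 cells (FLT3 ITD) carrying D835Y or F691L, 1×10^4 cells/well, eight 1:3 dilutions from 1 μM final, 0.2% DMSO, 3 days at 37 °C, 5% CO2. Viability by CellTiter-Glo luminescence (ATP content); IC50 from concentration-response.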

The target in the next assay is T1, BA/F3-FLT3-ITD + D835Y (Homo sapiens, UniProt P36888, D835Y, cells depend on it, form not given).
T1 sequence (P36888 with tags, fused parts or gaps INS600HVDFREYEYD/D835Y): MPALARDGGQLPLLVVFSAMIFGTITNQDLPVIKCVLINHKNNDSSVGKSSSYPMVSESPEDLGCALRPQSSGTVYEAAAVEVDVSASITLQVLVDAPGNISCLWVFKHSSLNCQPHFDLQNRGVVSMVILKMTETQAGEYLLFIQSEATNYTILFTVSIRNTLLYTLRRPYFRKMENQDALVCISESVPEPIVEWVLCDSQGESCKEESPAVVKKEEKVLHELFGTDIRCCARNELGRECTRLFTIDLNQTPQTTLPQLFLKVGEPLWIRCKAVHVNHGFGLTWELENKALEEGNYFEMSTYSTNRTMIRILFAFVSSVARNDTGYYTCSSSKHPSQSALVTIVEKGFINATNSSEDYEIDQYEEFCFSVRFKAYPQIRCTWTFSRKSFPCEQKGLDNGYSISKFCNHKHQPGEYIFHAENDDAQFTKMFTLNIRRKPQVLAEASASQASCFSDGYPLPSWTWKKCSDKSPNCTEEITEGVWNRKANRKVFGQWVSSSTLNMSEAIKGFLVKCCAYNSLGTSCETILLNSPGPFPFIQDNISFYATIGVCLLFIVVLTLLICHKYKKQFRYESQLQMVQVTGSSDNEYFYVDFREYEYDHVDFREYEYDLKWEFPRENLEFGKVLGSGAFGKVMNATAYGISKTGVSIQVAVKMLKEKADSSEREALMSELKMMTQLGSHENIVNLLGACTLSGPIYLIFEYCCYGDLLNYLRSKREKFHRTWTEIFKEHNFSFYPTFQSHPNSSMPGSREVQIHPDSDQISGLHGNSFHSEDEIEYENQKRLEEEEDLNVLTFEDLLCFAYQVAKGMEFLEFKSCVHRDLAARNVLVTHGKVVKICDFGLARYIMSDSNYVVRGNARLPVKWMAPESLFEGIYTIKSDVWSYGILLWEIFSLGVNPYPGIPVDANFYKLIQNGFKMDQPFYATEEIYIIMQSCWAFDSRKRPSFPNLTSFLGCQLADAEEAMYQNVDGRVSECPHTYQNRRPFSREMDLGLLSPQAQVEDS
Put plainly: Engineered BA/F3 cell growth assay, FLT3 ITD/D835Y. The class given is cell-based, murine. The settings on record: 3 d growth. The procedure, abridged: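 IC50 derived from CellTiter-Glo ATP luminescence after 3 days at 37 °C, 5% CO2, over eight 1:3 dilutions from 1 μM (0.2% DMSO final). Cells: IL-3-independent murine Ba/F3 expressing full-length FLT3 ITD/D835Y, 1×10^4 per well.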

A further assay addresses CSF1R (Homo sapiens, UniProt P07333). Put plainly: CSF1R 100 ATP 8 pt kinase assay (Table 6). The format is biochemical. The text has this: The following Table 6 provides data indicating FLT3 ITD, D835Y and F691L; c-KIT and CSF1R biochemical and/or cell inhibitory activity for exemplary compounds as described herein.

Sequence of CSF1R (P07333 20-972, species assumed): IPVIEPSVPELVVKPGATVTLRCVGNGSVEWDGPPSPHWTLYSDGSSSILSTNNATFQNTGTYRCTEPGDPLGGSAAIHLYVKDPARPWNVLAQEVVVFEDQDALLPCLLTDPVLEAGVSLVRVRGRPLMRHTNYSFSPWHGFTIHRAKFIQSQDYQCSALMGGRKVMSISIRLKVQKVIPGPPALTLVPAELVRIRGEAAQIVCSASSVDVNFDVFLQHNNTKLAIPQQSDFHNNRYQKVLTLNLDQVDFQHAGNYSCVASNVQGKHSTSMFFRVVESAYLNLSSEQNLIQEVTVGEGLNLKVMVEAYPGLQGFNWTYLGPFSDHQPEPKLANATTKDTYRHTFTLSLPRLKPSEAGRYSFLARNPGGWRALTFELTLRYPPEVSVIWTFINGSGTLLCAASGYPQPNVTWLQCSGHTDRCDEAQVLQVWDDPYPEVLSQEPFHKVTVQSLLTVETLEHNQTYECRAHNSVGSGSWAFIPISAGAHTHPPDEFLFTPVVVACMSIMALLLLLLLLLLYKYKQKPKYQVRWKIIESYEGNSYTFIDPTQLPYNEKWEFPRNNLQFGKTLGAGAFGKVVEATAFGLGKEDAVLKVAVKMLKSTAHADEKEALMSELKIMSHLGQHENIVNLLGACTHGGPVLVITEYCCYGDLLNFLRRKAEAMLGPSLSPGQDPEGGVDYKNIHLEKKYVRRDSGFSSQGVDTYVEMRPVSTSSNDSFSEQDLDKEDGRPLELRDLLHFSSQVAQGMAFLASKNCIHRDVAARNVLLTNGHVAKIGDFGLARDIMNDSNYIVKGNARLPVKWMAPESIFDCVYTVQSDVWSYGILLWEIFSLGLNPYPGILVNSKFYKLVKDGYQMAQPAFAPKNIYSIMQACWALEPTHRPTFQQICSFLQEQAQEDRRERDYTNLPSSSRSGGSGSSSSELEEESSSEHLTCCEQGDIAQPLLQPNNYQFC

`CCC(=O)c1c[nH]c2ncc(-c3ccc(CC(=O)Nc4cnc(C)c(C(F)(F)F)c4)c(F)c3)cc12` [Compound P-0070, 2-[2-fluoro-4-(3-propanoyl-1H-pyrrolo[2,3-b]pyridin-5-yl)phenyl]-N-[6-methyl-5-(trifluoromethyl)-3-pyridyl]acetamide]: the IC50 (in assay [1]; against CSF1R) was 0.0001 to 10 µM each time. In addition, the GI50 at BA/F3-FLT3-ITD + D835Y lay within 0.0001 to 10 µM.

`O=C(Cc1ccc(-c2cnc3[nH]nc(C4CC4)c3c2)cc1F)Nc1cncc(C(F)(F)F)c1` [Compound P-0072, 2-[4-(3-cyclopropyl-1H-pyrazolo[3,4-b]pyridin-5-yl)-2-fluoro-phenyl]-N-[5-(trifluoromethyl)-3-pyridyl]acetamide]: the IC50 (in assay [1]; against CSF1R) was 0.0001 to 10 µM throughout. Also, the GI50 at BA/F3-FLT3-ITD + D835Y lay within 0.0001 to 10 µM.

Turning to `O=C(Cc1ccc(-c2cnc3[nH]nc(C4CC4)c3c2)cc1)Nc1cncc(C(F)(F)F)c1` [Compound P-0073, 2-[4-(3-cyclopropyl-1H-pyrazolo[3,4-b]pyridin-5-yl)phenyl]-N-[5-(trifluoromethyl)-3-pyridyl]acetamide], the IC50 (in assay [1]; at CSF1R) was 0.0001 to 10 µM each time. Also, the GI50 at BA/F3-FLT3-ITD + D835Y lay within 0.0001 to 10 µM.

In turn, `Cc1nn(C)cc1Nc1ncc(-c2ccc(CC(=O)Nc3cnc(C)c(C(F)(F)F)c3)c(F)c2)cn1` [Compound P-0077, 2-[4-[2-[(1,3-dimethylpyrazol-4-yl)amino]pyrimidin-5-yl]-2-fluoro-phenyl]-N-[6-methyl-5-(trifluoromethyl)-3-pyridyl]acetamide] registered an IC50 in assay [1] of 0.0001 to 10 µM. Further, the GI50 at BA/F3-FLT3-ITD + D835Y fell in the range of 0.0001 to 10 µM.

Consider `Cn1cnc(Nc2ncc(-c3cc(F)c(CC(=O)Nc4cncc(C(F)(F)F)c4)cc3F)cn2)c1` [Compound P-0078, 2-(2,5-difluoro-4-(2-((1-methyl-1H-imidazol-4-yl)amino)pyrimidin-5-yl)phenyl)-N-(5-(trifluoromethyl)pyridin-3-yl)acetamide], for which the IC50 in assay [1] is 0.0001 to 10 µM. Moreover, at BA/F3-FLT3-ITD + D835Y, the GI50 is 0.0001 to 10 µM.

`Cc1ncc(NC(=O)Cc2ccc(-c3cnc4[nH]cc(Cl)c4n3)cc2)cc1C(F)(F)F` [Compound P-0079, 2-(4-(7-chloro-5H-pyrrolo[2,3-b]pyrazin-2-yl)phenyl)-N-(6-methyl-5-(trifluoromethyl)pyridin-3-yl)acetamide] showed an IC50 in assay [1] of 0.0001 to 10 µM. Also, on BA/F3-FLT3-ITD + D835Y, the GI50 lay within 0.0001 to 10 µM.

The compound `Cn1cc(Nc2ncc(-c3ccc(CC(=O)Nc4cncc(C5CC5)c4)c(F)c3)cn2)cn1` [Compound P-0081, N-(5-cyclopropyl-3-pyridyl)-2-[2-fluoro-4-[2-[(1-methylpyrazol-4-yl)amino]pyrimidin-5-yl]phenyl]acetamide] came in with an IC50 in assay [1] of 0.0001 to 10 µM. In addition, the GI50 at BA/F3-FLT3-ITD + D835Y lay within 0.0001 to 10 µM.

In assay [1], `Cn1cc(Nc2ncc(-c3ccc(CC(=O)Nc4cc(C(F)(F)F)ccn4)c(F)c3)cn2)cn1` [Compound P-0082, 2-[2-fluoro-4-[2-[(1-methylpyrazol-4-yl)amino]pyrimidin-5-yl]phenyl]-N-[4-(trifluoromethyl)-2-pyridyl]acetamide] returned a concentration for half-maximal inhibition (IC50) of 0.0001 to 10 µM. Further, the GI50 on BA/F3-FLT3-ITD + D835Y lay in the range of 0.0001 to 10 µM.

In turn, `Cn1cc(Nc2ncc(-c3ccc(CC(=O)Nc4ccnc(C(F)(F)F)c4)c(F)c3)cn2)cn1` [Compound P-0083, 2-[2-fluoro-4-[2-[(1-methylpyrazol-4-yl)amino]pyrimidin-5-yl]phenyl]-N-[2-(trifluoromethyl)-4-pyridyl]acetamide] displayed an IC50 in assay [1] of 0.0001 to 10 µM. Moreover, on BA/F3-FLT3-ITD + D835Y, the GI50 lay in the range of 0.0001 to 10 µM.

`Cn1cc(Nc2ncc(-c3ccc(CC(=O)Nc4cncc(C(F)(F)F)c4)c(F)c3)cn2)cn1` [Compound P-0084, 2-[2-fluoro-4-[2-[(1-methylpyrazol-4-yl)amino]pyrimidin-5-yl]phenyl]-N-[5-(trifluoromethyl)-3-pyridyl]acetamide] gave an IC50 in assay [1] of 0.0001 to 10 µM. Moreover, the GI50 on BA/F3-FLT3-ITD + D835Y fell in the range of 0.0001 to 10 µM.

In assay [1], `COc1cncc(NC(=O)Cc2ccc(-c3cnc(Nc4cnn(C)c4)nc3)cc2F)c1` [Compound P-0086, 2-[2-fluoro-4-[2-[(1-methylpyrazol-4-yl)amino]pyrimidin-5-yl]phenyl]-N-(5-methoxy-3-pyridyl)acetamide] showed an IC50 of 0.0001 to 10 µM. For the same compound, the GI50 on BA/F3-FLT3-ITD + D835Y lay in the range of 0.0001 to 10 µM.

`Cn1cc(Nc2ncc(-c3ccc(CC(=O)NCc4ccc(C(F)(F)F)nc4)c(F)c3)cn2)cn1` [Compound P-0087, 2-[2-fluoro-4-[2-[(1-methylpyrazol-4-yl)amino]pyrimidin-5-yl]phenyl]-N-[[6-(trifluoromethyl)-3-pyridyl]methyl]acetamide] had an IC50 in assay [1] of 0.0001 to 10 µM. In addition, the GI50 at BA/F3-FLT3-ITD + D835Y lay in the range of 0.0001 to 10 µM.

`Cn1cc(Nc2ncc(-c3ccc(CC(=O)NCc4ccccn4)c(F)c3)cn2)cn1` [Compound P-0088, 2-[2-fluoro-4-[2-[(1-methylpyrazol-4-yl)amino]pyrimidin-5-yl]phenyl]-N-(2-pyridylmethyl)acetamide] had an IC50 in assay [1] of 0.0001 to 10 µM. Besides, the GI50 at BA/F3-FLT3-ITD + D835Y lay within 0.0001 to 10 µM.

For the compound `COc1ncc(NC(=O)Cc2ccc(-c3cnc(Nc4cnn(C)c4)nc3)cc2F)cc1C(F)(F)F` [Compound P-0089, 2-[2-fluoro-4-[2-[(1-methylpyrazol-4-yl)amino]pyrimidin-5-yl]phenyl]-N-[6-methoxy-5-(trifluoromethyl)-3-pyridyl]acetamide], in assay [1], the IC50 is 0.0001 to 10 µM. Moreover, the GI50 at BA/F3-FLT3-ITD + D835Y lay within 0.0001 to 10 µM.

In assay [1], `Cn1cc(Nc2ncc(-c3ccc(CC(=O)Nc4cncc(C(C)(F)F)c4)c(F)c3)cn2)cn1` [Compound P-0090, N-[5-(1,1-difluoroethyl)-3-pyridyl]-2-[2-fluoro-4-[2-[(1-methylpyrazol-4-yl)amino]pyrimidin-5-yl]phenyl]acetamide] returned an IC50 of 0.0001 to 10 µM. Besides, the GI50 on BA/F3-FLT3-ITD + D835Y was 0.0001 to 10 µM.

These data come from US10160747B2, “Compounds and methods for kinase modulation, and indications therefor” (Plexxikon Inc., priority 2016, dated 2018).
